Data from publication PMC9782626, “Copper(II) Complexes of 5–Fluoro–Salicylaldehyde: Synthesis, Characterization, Antioxidant Properties, Interaction with DNA and Serum Albumins” (Molecules, 2022).

Legend:
[1] = ABTS radical cation scavenging assay; assay type: biochemical; conditions: compound 0.1 mM, 1 min
From the text: For the above reasons, the antioxidant ability of 5–F–saloH and Cu(II) complexes 1–5 has been evaluated via their scavenging activity towards DPPH and ABTS radicals, as well as the ability to reduce H2O2, and in comparison with that of well-known antioxidant agents such as nordihydroguaiaretic acid (NDGA), butylated hydroxytoluene (ΒHΤ), 6–hydroxy–2,5,7,8–tetramethylchromane–2–carboxylic acid (trolox) and L–ascorbic acid (these are the most commonly used standard reference antioxidant agents). The DPPH-radical assay was developed in the 1950s and this method has been used to assess the antioxidant capacity of several metal complexes. The DPPH–scavenging ability of compounds has often been related to their ability to prevent ageing, cancer and inflammation. The ability of a compound to scavenge the cationic ABTS radicals (ABTS^+●) has been considered a measure of its total antioxidant activity. Further, hydrogen peroxide has the ability to penetrate biological membranes and, although it is not very reactive itself, it can sometimes be toxic since it may give rise to hydroxyl radicals in cells. For this reason, the removal of H2O2 is very important for the protection of living systems. When a compound is incubated with H2O2 using a peroxidase assay system, the loss of H2O2 can be measured.
S1 Antioxidant activity assay
The antioxidant activity of the compounds was evaluated via their ability to scavenge in vitro free radicals such as DPPH and ABTS and to reduce H 2O2. All the experiments were carried out at least in triplicate and the standard deviation of absorbance was less than 10% of the mean. […]
S1.2 Assay of radical cation ABTS-scavengin g activity
The ABTS assay was performed to determine the activity of the compounds to scavenge the radical cation ABTS. Initially, a water solution of ABTS was prepared (2 mM). ABTS radical cation (ABTS+·) was produced by the reaction of ABTS stock solution with potassium persulfate (0.17 mM) and the mixture was stored in the dark at room temperature for 12-16 h before its use. The ABTS was oxidized incompletely because the stoichiometric reaction ratio of ABTS and potassium persulfate is 1:0.5. The absorbance became maximal and stable only after more than 6 h of reaction although the oxidation of the ABTS started immediately. The radical was stable in this form for more than 2 days when allowed to stand in the dark at room temperature. Afterwards, the ABTS+· solution was diluted in ethanol to an absorbance of 0.70 at 734 nm and 10 μL of diluted compounds or standards (0.1 mM) in DMSO were added. The absorbance was recorded out exactly 1 min after init ial m ix in g [S 1]. The ABTS radical scavenging act ivit y was expressed as the percentage inhibition of the absorbance of the initial ABTS solution (ABTS%). Trolox was used as an appropriate standard. […]

[2] = Solubility in solvents; assay type: physicochemical
[3] = tested on: CT DNA; experiment: Binding study with CT DNA by UV-vis spectroscopy; design: species or system calf
Procedure: Initially, the UV–vis spectra of complexes 1–5 (2.5 × 10^−5 – 1 × 10^−4 M) were recorded in the presence of incremental amounts of CT DNA (Figure 4), and the changes of the λmax of the bands observed in the spectra of the complexes were monitored as a means to study the interaction between complexes and CT DNA [50] and to calculate the corresponding DNA-binding constants (Kb). As observed, in the UV–vis spectra of the complexes, at least two bands were observed: band I in the range 314–339 nm and band II in the region 380–428 nm. […] These features indicate the interaction of the complexes with CT DNA [51], but may not provide sufficient information to reveal the possible interaction mode. Therefore, for the elucidation of the CT DNA interaction mode, further experiments involving DNA-viscosity measurements and competitive studies with EB were performed. […]
S2Binding studies with CT DNA
The interaction of the compounds with CT DNA was studied by UV-vis spectroscopy, viscosity measurements a nd via competit ive stud ie s with EB by fl uorescence […]
S2.1 Binding study with CT DNA by UV -vis spectroscopy
The interaction of the compounds with CT DNA has been studied by UV-vis spectroscopy in order to investigate the possible binding modes to CT DNA and to calculate the DNA-binding constants (Kb). The Kb constants (in M-1) were determined by the Wolfe-Shimer equation (eq. S1) [S3] and the plots [DNA]/(εA-εf) versus [DNA] using the UV-vis spectra of the compounds (20 -100 μM) recorded for a constant concentration with increasing concentrations of CT DNA for diverse [complex]/[DNA] mixing ratios (= r ).
Control experiments with DMSO were performed and no changes in the spectra of CT DNA were observed. […]
[DNA] = [DNA] + 1 (eq. S1) […]
where [DNA] is the concentration of DNA in base pa irs, εA = Aobsd/[compound ], εf = the extinction coefficient for the free compound and ε b = the extinction coefficient for the compound in the fully bound form. Kb is given by the ratio of slope to the y intercept in plots [DNA]/(εA-εf) versus[DNA]. […]

[4] = first UV band listed in the cell (295–334 nm)
[5] = second UV band listed in the cell (330–421 nm)

SMILES | ABTS%, % ABTS–scavenging activity [1] | Solubility in DMSO and DMF [2] | ΔA/Aο, percentage of hyper-/hypo-chromism upon addition of CT DNA [3, 4] | ΔA/Aο, percentage of hyper-/hypo-chromism upon addition of CT DNA [3, 5] | Solubility in MeOH [2] | ΔA/Aο, percentage of hyper-/hypo-chromism upon addition of CT DNA ([3]; third UV band listed in the cell (405 nm))
O=Cc1cc(F)ccc1[O-].O=Cc1cc(F)ccc1[O-].[Cu+2] [Complex 1, [Cu(5–F–salo)2]] | 78.89 ± 0.18% | soluble | −34% | −20% |  | 
O=Cc1cc(F)ccc1[O-].[Cl-].[Cu+2].c1ccc(Nc2ccccn2)nc1 [Complex 2, [Cu(5–F–salo)(bipyam)Cl]] | 48.89 ± 0.38% | soluble | −12% | > +50% | partially soluble | 
CO.Cc1ccc2ccc3ccc(C)nc3c2n1.O=Cc1cc(F)ccc1[O-].[Cl-].[Cu+2] [Complex 3, [Cu(5–F–salo)(neoc)Cl].CH3OH] | 46.03 ± 0.60% | soluble | −41% | +34% | partially soluble | 
O=Cc1cc(F)ccc1[O-].O=[N+]([O-])[O-].[Cu+2].c1cnc2c(c1)ccc1cccnc12 [Complex 4, [Cu(5–F–salo)(phen)(NO3)]] | 48.14 ± 0.35% | soluble | −38% | −29% |  | +44%
O=Cc1cc(F)ccc1[O-].O=[N+]([O-])[O-].[Cu+2].c1ccc(-c2ccccn2)nc1 [Complex 5, [Cu(5–F–salo)(bipy)(NO3)]] | 7.36 ± 0.08% |  | −72% | −28% |  | 
